{"source": "ChEMBL document CHEMBL5316343", "about": "“Design, Synthesis, and Biological Evaluation of a Potent Dual EZH2-BRD4 Inhibitor for the Treatment of Some Solid Tumors” (J Med Chem, 2023)", "key": {"[1]": {"biological_target": "Bromodomain-containing protein 3 (Homo sapiens, UniProt Q15059)", "sequence (Q15059 whole entry)": "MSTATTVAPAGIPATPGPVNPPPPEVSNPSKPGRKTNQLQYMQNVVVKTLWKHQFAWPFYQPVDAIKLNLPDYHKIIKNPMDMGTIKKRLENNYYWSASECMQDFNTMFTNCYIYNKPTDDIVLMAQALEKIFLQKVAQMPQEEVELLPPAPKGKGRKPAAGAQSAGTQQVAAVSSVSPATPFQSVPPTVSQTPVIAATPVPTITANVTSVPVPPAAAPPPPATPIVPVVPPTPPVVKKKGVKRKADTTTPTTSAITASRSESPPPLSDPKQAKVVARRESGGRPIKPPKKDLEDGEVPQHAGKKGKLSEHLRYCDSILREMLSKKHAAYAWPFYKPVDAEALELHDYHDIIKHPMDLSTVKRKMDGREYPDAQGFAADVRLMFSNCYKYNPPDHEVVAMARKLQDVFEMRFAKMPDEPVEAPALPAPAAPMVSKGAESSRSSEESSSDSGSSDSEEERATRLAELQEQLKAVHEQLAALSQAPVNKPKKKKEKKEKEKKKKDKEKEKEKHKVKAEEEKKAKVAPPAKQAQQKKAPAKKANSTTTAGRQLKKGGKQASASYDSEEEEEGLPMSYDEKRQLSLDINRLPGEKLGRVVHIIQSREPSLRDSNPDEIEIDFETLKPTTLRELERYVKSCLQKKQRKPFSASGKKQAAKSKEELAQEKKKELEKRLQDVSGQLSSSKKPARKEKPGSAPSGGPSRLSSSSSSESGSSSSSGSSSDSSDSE", "experiment": "Inhibition of BRD3-BD1/2 (unknown origin) by HTRF analysis"}, "MDA-MB-231 [2]": {"test_system": "MDA-MB-231", "experiment": "Induction of apoptosis in human MDA-MB-231 cells assessed as necrotic cells at 1 uM incubated for 48 hrs by Annexin V-FITC/PI staining based flow cytometric analysis (reference value: 0.63%)", "type": "functional"}, "BXPC-3 [3]": {"test_system": "BXPC-3", "experiment": "Induction of apoptosis in human BXPC-3 cells assessed as late apoptotic cells at 5 uM incubated for 48 hrs by Annexin V-FITC/PI staining based flow cytometric analysis (reference value: 4.38 %)", "type": "functional"}, "[4]": {"biological_target": "Bromodomain-containing protein 2 (Homo sapiens, UniProt P25440)", "sequence (P25440 whole entry)": "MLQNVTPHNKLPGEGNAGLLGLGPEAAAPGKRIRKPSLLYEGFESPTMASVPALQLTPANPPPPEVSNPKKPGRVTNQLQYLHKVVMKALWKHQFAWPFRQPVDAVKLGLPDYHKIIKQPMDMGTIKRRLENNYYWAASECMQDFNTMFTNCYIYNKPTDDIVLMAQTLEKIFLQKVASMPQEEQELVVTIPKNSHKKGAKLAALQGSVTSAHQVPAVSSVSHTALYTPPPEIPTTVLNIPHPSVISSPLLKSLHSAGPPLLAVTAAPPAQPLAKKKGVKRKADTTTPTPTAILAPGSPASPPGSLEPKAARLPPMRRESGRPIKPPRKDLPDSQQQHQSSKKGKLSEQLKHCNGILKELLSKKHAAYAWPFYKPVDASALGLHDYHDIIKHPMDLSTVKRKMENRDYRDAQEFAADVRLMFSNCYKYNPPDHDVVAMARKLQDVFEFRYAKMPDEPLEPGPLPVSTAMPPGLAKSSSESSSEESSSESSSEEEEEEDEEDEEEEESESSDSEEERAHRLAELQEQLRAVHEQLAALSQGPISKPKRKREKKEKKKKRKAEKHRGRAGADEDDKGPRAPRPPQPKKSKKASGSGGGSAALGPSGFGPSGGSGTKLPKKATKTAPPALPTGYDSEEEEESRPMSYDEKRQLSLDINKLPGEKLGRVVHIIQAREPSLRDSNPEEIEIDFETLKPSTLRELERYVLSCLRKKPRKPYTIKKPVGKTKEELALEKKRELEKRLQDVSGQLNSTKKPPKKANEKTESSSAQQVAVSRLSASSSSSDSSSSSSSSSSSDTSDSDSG", "experiment": "Inhibition of BRD2-BD1/2 (unknown origin) by HTRF analysis"}, "BXPC-3 [5]": {"test_system": "BXPC-3", "experiment": "Induction of apoptosis in human BXPC-3 cells assessed as necrotic cells at 2.5 uM incubated for 48 hrs by Annexin V-FITC/PI staining based flow cytometric analysis (reference value: 1.65 %)", "type": "functional"}, "BXPC-3 [6]": {"test_system": "BXPC-3", "experiment": "Inhibition of cell proliferation in human BXPC-3 cells assessed as decrease in c-Myc mRNA level at 5 uM incubated for 48 hrs by qRT-PCR analysis", "type": "functional, cell-based"}, "MDA-MB-231 [7]": {"test_system": "MDA-MB-231", "experiment": "Antiproliferative activity against human MDA-MB-231 cells assessed as inhibition of cell proliferation incubated for 6 days by CCK8 assay", "type": "functional, cell-based", "details": "time 6.0 day"}, "MDA-MB-231 [8]": {"test_system": "MDA-MB-231", "experiment": "Induction of apoptosis in human MDA-MB-231 cells assessed as late apoptotic cells at 2.5 uM incubated for 48 hrs by Annexin V-FITC/PI staining based flow cytometric analysis (reference value: 1.06%)", "type": "functional"}, "PANC-1": {"test_system": "PANC-1", "experiment": "Antiproliferative activity against human PANC-1 cells assessed as inhibition of cell proliferation incubated for 6 days by CCK8 assay", "type": "functional, cell-based", "details": "time 6.0 day"}, "MDA-MB-231 [9]": {"test_system": "MDA-MB-231", "experiment": "Induction of apoptosis in human MDA-MB-231 cells assessed as early apoptotic cells at 2.5 uM incubated for 48 hrs by Annexin V-FITC/PI staining based flow cytometric analysis (reference value: 0.69%)", "type": "functional"}, "MDA-MB-231 [10]": {"test_system": "MDA-MB-231", "experiment": "Induction of apoptosis in human MDA-MB-231 cells assessed as early apoptotic cells at 5 uM incubated for 48 hrs by Annexin V-FITC/PI staining based flow cytometric analysis (reference value: 0.69%)", "type": "functional"}, "MDA-MB-231 [11]": {"test_system": "MDA-MB-231", "experiment": "Inhibition of cell proliferation in human MDA-MB-231 cells assessed as decrease in c-Myc mRNA level at 5 uM incubated for 48 hrs by qRT-PCR analysis", "type": "functional, cell-based"}, "MDA-MB-231 [12]": {"test_system": "MDA-MB-231", "experiment": "Induction of apoptosis in human MDA-MB-231 cells assessed as necrotic cells at 5 uM incubated for 48 hrs by Annexin V-FITC/PI staining based flow cytometric analysis (reference value: 0.63%)", "type": "functional"}, "[13]": {"biological_target": "Bromodomain testis-specific protein (Homo sapiens, UniProt Q58F21)", "experiment": "Inhibition of BRDT-BD1 (unknown origin) by HTRF analysis"}, "BXPC-3 [14]": {"test_system": "BXPC-3", "experiment": "Induction of apoptosis in human BXPC-3 cells assessed as early apoptotic cells at 1 uM incubated for 48 hrs by Annexin V-FITC/PI staining based flow cytometric analysis (reference value: 3.28 %)", "type": "functional"}, "[15]": {"biological_target": "Bromodomain-containing protein 4 (Homo sapiens, UniProt O60885)", "experiment": "Inhibition of BRD4 (unknown origin) by HTRF analysis"}, "[16]": {"experiment": "Half-life in ICR mouse at 60 mg/kg, ip measured upto 24 hrs by LC-MS/MS analysis", "type": "ADME, organism-based", "details": "in vivo"}, "95-D": {"test_system": "95-D", "experiment": "Antiproliferative activity against human 95-D cells assessed as inhibition of cell proliferation incubated for 6 days by CCK8 assay", "type": "functional, cell-based", "details": "time 6.0 day"}, "[17]": {"experiment": "Cmax in ICR mouse at 60 mg/kg, ip measured upto 24 hrs by LC-MS/MS analysis", "type": "ADME, organism-based", "set-up": "time < 24 hrs, dose 60 mg/kg, route ip", "details": "in vivo"}, "BXPC-3 [18]": {"test_system": "BXPC-3", "experiment": "Induction of apoptosis in human BXPC-3 cells assessed as necrotic cells at 5 uM incubated for 48 hrs by Annexin V-FITC/PI staining based flow cytometric analysis (reference value: 1.65 %)", "type": "functional"}, "[19]": {"biological_target": "T1, Histone-lysine N-methyltransferase EZH2 (Homo sapiens, UniProt Q15910)", "T1 sequence (Q15910 whole entry, looked up)": "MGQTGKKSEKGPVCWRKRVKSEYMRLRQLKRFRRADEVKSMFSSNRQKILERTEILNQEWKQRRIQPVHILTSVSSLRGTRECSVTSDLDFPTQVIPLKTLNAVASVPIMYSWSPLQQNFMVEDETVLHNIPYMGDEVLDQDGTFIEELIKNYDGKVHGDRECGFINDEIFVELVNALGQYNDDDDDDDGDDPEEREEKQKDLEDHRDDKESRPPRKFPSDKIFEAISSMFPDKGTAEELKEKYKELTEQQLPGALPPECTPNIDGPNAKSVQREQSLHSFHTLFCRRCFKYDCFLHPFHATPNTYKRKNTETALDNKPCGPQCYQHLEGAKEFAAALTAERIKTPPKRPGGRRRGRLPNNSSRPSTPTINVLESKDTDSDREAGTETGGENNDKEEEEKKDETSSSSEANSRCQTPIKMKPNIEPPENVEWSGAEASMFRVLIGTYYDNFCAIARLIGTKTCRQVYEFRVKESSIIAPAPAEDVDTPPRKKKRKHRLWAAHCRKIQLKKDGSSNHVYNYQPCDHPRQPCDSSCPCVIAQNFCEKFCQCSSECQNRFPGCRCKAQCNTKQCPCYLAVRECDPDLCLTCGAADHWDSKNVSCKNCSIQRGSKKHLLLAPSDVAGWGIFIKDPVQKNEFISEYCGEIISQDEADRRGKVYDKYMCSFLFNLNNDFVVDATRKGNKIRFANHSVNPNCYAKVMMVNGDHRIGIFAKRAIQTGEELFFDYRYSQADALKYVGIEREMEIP", "experiment": "Inhibition of EZH2 in human BX-PC-3 cells assessed as decrease in H3K27me3 level at 5 uM by fluorescence based analysis", "type": "cell-based", "details": "BXPC-3"}, "BXPC-3 [20]": {"test_system": "BXPC-3", "experiment": "Induction of apoptosis in human BXPC-3 cells assessed as viable cells at 1 uM incubated for 48 hrs by Annexin V-FITC/PI staining based flow cytometric analysis (reference value: 90.70%)", "type": "functional", "details": "read-out: Activity"}, "MDA-MB-231 [21]": {"test_system": "MDA-MB-231", "experiment": "Induction of apoptosis in human MDA-MB-231 cells assessed as viable cells at 1 uM incubated for 48 hrs by Annexin V-FITC/PI staining based flow cytometric analysis (reference value: 97.63%)", "type": "functional", "details": "read-out: Activity"}, "[22]": {"experiment": "AUC(0 to t) in ICR mouse at 60 mg/kg, ip measured upto 24 hrs by LC-MS/MS analysis", "type": "ADME, organism-based", "set-up": "time < 24 hrs, dose 60 mg/kg, route ip", "details": "in vivo"}, "MDA-MB-231 [23]": {"test_system": "MDA-MB-231", "experiment": "Induction of apoptosis in human MDA-MB-231 cells assessed as late apoptotic cells at 1 uM incubated for 48 hrs by Annexin V-FITC/PI staining based flow cytometric analysis (reference value: 1.06%)", "type": "functional"}, "[24]": {"biological_target": "T1, Histone-lysine N-methyltransferase EZH2", "experiment": "Inhibition of EZH2 in human BXPC-3 cells assessed as increase in H3K27ac level at 5 uM by fluorescence based analysis", "type": "cell-based"}, "BXPC-3 [25]": {"test_system": "BXPC-3", "experiment": "Induction of apoptosis in human BXPC-3 cells assessed as early apoptotic cells at 2.5 uM incubated for 48 hrs by Annexin V-FITC/PI staining based flow cytometric analysis (reference value: 3.28 %)", "type": "functional"}, "BXPC-3 [26]": {"test_system": "BXPC-3", "experiment": "Inhibition of cell proliferation in human BXPC-3 cells assessed as decrease in c-Myc protein level at 5 uM incubated for 48 hrs by IHC analysis", "type": "functional, cell-based"}, "BXPC-3 [27]": {"test_system": "BXPC-3", "experiment": "Induction of apoptosis in human BXPC-3 cells assessed as necrotic cells at 1 uM incubated for 48 hrs by Annexin V-FITC/PI staining based flow cytometric analysis (reference value: 1.65 %)", "type": "functional"}, "BXPC-3 [28]": {"test_system": "BXPC-3", "experiment": "Antitumor activity against human BXPC-3 cells xenografted in Balb/c nude mouse assessed as reduction in tumor growth at 30 mg/kg, ip administered daily for 30 days", "type": "functional, organism-based", "details": "time 30.0 day"}, "MDA-MB-231 [29]": {"test_system": "MDA-MB-231", "experiment": "Induction of apoptosis in human MDA-MB-231 cells assessed as viable cells at 5 uM incubated for 48 hrs by Annexin V-FITC/PI staining based flow cytometric analysis (reference value: 97.63%)", "type": "functional", "details": "read-out: Activity"}, "BXPC-3 [30]": {"test_system": "BXPC-3", "experiment": "Induction of cell cycle arrest in human BXPC-3 cells assessed as accumulation of cells at G0/G1 phase at 1 to 5 uM incubated for 48 hrs by flow cytometric analysis", "type": "functional, cell-based", "details": "dose 1-5 µM"}, "BXPC-3 [31]": {"test_system": "BXPC-3", "experiment": "Induction of apoptosis in human BXPC-3 cells assessed as viable cells at 5 uM incubated for 48 hrs by Annexin V-FITC/PI staining based flow cytometric analysis (reference value: 90.70%)", "type": "functional", "details": "read-out: Activity"}, "[32]": {"biological_target": "T1, Histone-lysine N-methyltransferase EZH2", "experiment": "Inhibition of EZH2 in human MDA-MB-231 cells assessed as decrease in H3K27me3 level at 5 uM by fluorescence based analysis", "type": "cell-based"}, "MDA-MB-231 [33]": {"test_system": "MDA-MB-231", "experiment": "Induction of apoptosis in human MDA-MB-231 cells assessed as early apoptotic cells at 1 uM incubated for 48 hrs by Annexin V-FITC/PI staining based flow cytometric analysis (reference value: 0.69%)", "type": "functional"}, "[34]": {"experiment": "MRT(0 to infinity) in ICR mouse at 60 mg/kg, ip measured upto 24 hrs by LC-MS/MS analysis", "type": "ADME, organism-based", "details": "in vivo"}}, "note": "Active and inactive are the calls of the source. No cut-off for these calls is given here.", "data": [{"compound": "CCC(C)n1ccc2c(C(=O)NCc3c(C)cc(C)[nH]c3=O)cc(-c3cn(C)c(=O)c4[nH]ccc34)cc21", "note": "(stereo unspecified)", "values": [{"measurement": "IC50", "setting": "[1]", "result": 32, "unit": "nM"}, {"measurement": "Activity", "setting": "MDA-MB-231 [2]", "result": 0.87, "unit": "%"}, {"measurement": "Activity", "setting": "BXPC-3 [3]", "result": 23.83, "unit": "%"}, {"measurement": "IC50", "setting": "[4]", "result": 31, "unit": "nM"}, {"measurement": "Activity", "setting": "BXPC-3 [5]", "result": 2.86, "unit": "%"}, {"measurement": "inhibition", "setting": "BXPC-3 [6]", "result": "Active"}, {"measurement": "Activity", "setting": "MDA-MB-231 [7]", "result": "Active"}, {"measurement": "Activity", "setting": "MDA-MB-231 [8]", "result": 2.29, "unit": "%"}, {"measurement": "Activity", "setting": "PANC-1", "result": "Active"}, {"measurement": "Activity", "setting": "MDA-MB-231 [9]", "result": 8.53, "unit": "%"}, {"measurement": "Activity", "setting": "MDA-MB-231 [10]", "result": 13.19, "unit": "%"}, {"measurement": "inhibition", "setting": "MDA-MB-231 [11]", "result": "Active"}, {"measurement": "Activity", "setting": "MDA-MB-231 [12]", "result": 1.91, "unit": "%"}, {"measurement": "IC50", "setting": "[13]", "result": 35, "unit": "nM"}, {"measurement": "Activity", "setting": "BXPC-3 [14]", "result": 6.84, "unit": "%"}, {"measurement": "IC50", "setting": "[15]", "result": 147, "unit": "nM"}, {"measurement": "half-life", "setting": "[16]", "result": 13.6, "unit": "h"}, {"measurement": "Activity", "setting": "95-D", "result": "Active"}, {"measurement": "Cmax", "setting": "[17]", "result": 2960, "unit": "ng/mL"}, {"measurement": "Activity", "setting": "BXPC-3 [18]", "result": 3.35, "unit": "%"}, {"measurement": "inhibition", "setting": "[19]", "result": "Active"}, {"measurement": "viability at 1 µM", "setting": "BXPC-3 [20]", "result": 82.6, "unit": "%"}, {"measurement": "viability at 1 µM", "setting": "MDA-MB-231 [21]", "result": 94.8, "unit": "%"}, {"measurement": "AUC(0-t) at 24 h", "setting": "[22]", "result": 1820, "unit": "ng·h/mL"}, {"measurement": "Activity", "setting": "MDA-MB-231 [23]", "result": 1.36, "unit": "%"}, {"measurement": "inhibition", "setting": "[24]", "result": "Active"}, {"measurement": "Activity", "setting": "BXPC-3 [25]", "result": 9.2, "unit": "%"}, {"measurement": "inhibition", "setting": "BXPC-3 [26]", "result": "Active"}, {"measurement": "Activity", "setting": "BXPC-3 [27]", "result": 2.94, "unit": "%"}, {"measurement": "Activity", "setting": "BXPC-3 [28]", "result": "inactive"}, {"measurement": "viability at 5 µM", "setting": "MDA-MB-231 [29]", "result": 81.1, "unit": "%"}, {"measurement": "Activity", "setting": "BXPC-3 [30]", "result": "Active"}, {"measurement": "viability at 5 µM", "setting": "BXPC-3 [31]", "result": 62.1, "unit": "%"}, {"measurement": "inhibition", "setting": "[32]", "result": "Active"}, {"measurement": "Activity", "setting": "MDA-MB-231 [33]", "result": 2.87, "unit": "%"}, {"measurement": "MRT inf", "setting": "[34]", "result": 6.94, "unit": "h"}]}]}
